Data from patent US6335443B1, “Chemical synthesis of exochelins” (Keystone Biomedical, Inc., priority 1998, dated 2002).
“And” between values parts separate entries of the source, which are not always exact repeats. Equal entries are not always repeated. Each block holds one substance with its values, some of them ahead of it.

Legend:
[1] = system: ferri-Exochelin 758SM; assay: Capacity to remove iron from a different Exochelin species (Ferri-Exochelin 758SM); format: binding; details: for % Iron-Saturation 0 h / % of Calculated Iron-Saturation at Equilibrium 0 h / % of Calculated Iron-Saturation at Equilibrium 1 h / % Iron-Saturation 1 h: Table 1; for % Iron-Saturation 0 h / % Iron-Saturation 0 hour / % Iron-Saturation 1 hour / % Iron-Saturation 1 h: mixed with ferri-Exochelin 758SM
Method: C. Capacity to Remove Iron from a Different Exochelin Species. To assess the affinity of the synthetic desferri-Exochelin 772SM(R) for iron, its capacity to remove iron from a different Exochelin species, ferri-Exochelin 758SM, was evaluated. The capacity of synthetic and native desferri-Exochelin 772SM(R) to remove iron from ferri-Exochelin 758SM was also evaluated and compared. Either native or synthetic desferri-Exochelin 772SM(R) were independently mixed with ferri-Exochelin 758SM. The amount of iron acquired in 1 hour by the desferri-Exochelins was assayed by subjecting the Exochelin to reverse-phase HPLC on a phenyl column, as described above, and the area under the 450 nm absorbance peak was measured. The amount of iron-Exochelin was then calculated using a conversion factor derived from assaying known amounts of ferri-Exochelin 772SM(R).
C. Capacity to Remove Iron from a Different Exochelin Species. To assess the affinity of the synthetic desferri-Exochelin 772SM(S) for iron, its capacity to remove iron from a different exochelin species, ferri-Exochelin 758SM was evaluated. The capacity of synthetic desferri-Exochelin 772SM(S) and native desferri-Exochelin 772SM(R) to remove iron from ferri-Exochelin 758SM was also evaluated and compared. Either synthetic desferri-Exochelin 772SM(S) or native desferri-Exochelin 772SM(R) was mixed with ferri-Exochelin 758SM. The amount of iron acquired by the desferri-exochelins after 1 hour was assayed by subjecting the molecule to reverse-phase HPLC on a phenyl column, as described above, and the area under the 450 nm absorbance peak was measured. The amount of iron-exochelin was then calculated using a conversion factor derived from assaying known amounts of ferri-Exochelin 772SM(R) and ferri-Exochelin 772SM(S).

[2] = system: ferri-Exochelin 758SM; assay: Capacity to remove iron from Ferri-Exochelin 758SM in the same vial (772SM(R) vs 772SM(S)); format: binding; details: Table 3, 772SM(R), 772SM(S) and 758SM in the same vial
Method: To further assess the relative affinities of the stereoisomers desferri-Exochelin 772SM(R) and 772SM(S) for iron, their capacity to remove iron from a different exochelin species in the same vial were compared.
In the experiment,15.6 μg of 1.1% iron-saturated synthetic Exochelin 772SM(R) and 17.4 μg of 1.0% iron-saturated synthetic Exochelin 772SM(S) was mixed with 13.5 μg of 100% iron-saturated native Exochelin 758SM.

[3] = molecular target: human apotransferrin (<0.7% iron-saturated) (Homo sapiens, UniProt P02787); assay: Control incubation with human apotransferrin (<0.7% iron-saturated); format: biochemical; details: apotransferrin 38 mg/ml
Sequence of human apotransferrin (<0.7% iron-saturated) (P02787 20-698): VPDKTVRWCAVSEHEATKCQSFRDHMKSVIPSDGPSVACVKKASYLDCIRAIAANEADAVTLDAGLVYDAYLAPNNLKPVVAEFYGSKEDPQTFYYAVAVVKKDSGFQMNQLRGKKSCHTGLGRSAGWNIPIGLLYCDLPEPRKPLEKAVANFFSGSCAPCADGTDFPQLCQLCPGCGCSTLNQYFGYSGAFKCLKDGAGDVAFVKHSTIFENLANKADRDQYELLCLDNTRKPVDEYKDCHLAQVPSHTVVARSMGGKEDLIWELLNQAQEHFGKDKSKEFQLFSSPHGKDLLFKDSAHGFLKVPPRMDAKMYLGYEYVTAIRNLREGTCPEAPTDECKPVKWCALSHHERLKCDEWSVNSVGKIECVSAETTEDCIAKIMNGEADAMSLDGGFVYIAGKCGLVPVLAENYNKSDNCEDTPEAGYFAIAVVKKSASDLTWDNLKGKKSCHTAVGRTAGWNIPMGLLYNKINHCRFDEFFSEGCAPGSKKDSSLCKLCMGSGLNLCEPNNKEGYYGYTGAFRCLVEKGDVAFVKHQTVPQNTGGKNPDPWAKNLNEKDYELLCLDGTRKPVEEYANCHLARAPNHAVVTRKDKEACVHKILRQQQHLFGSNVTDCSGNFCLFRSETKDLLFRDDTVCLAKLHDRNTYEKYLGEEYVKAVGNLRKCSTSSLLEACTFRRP
Method: (§1) A. 40% Iron-Saturated Human Transferrin. To assess the capacity of the 3 different desferri-Exochelins to remove iron from 40% iron-saturated human transferrin, each of them was incubated for 1, 3, and 24 hours with 40% iron-saturated transferrin such that the ratio of Fe^3+: desferri-Exochelin equaled 10:1. The incubation was carried out in PBS, pH 7.4. Afterwards, the Exochelin and transferrin were separated from each other by centrifugation through a 10,000 dalton cut-off filter. The transferrin (mass 76,000 daltons) was completely excluded by this filter whereas 85% of the Exochelin (mass<1,000) was recovered in the filtrate. To determine the total amount of exochelin recovered, the exochelin in the filtrate was saturated with a 20:1 molar excess of ferric ammonium citrate and subjected to reverse-phase HPLC as described above. To determine the amount of iron-saturated Exochelin in the filtrate at each time point, the filtrate was subjected to reverse-phase HPLC without the addition of iron. The % iron-saturation was calculated as follows: [formula]
C. Apotransferrin (<0.7% Iron-Saturated Human Transferrin). As a control, the three desferri-exochelins were incubated for 3 h and 24 h with human apotransferrin (<0.7% iron-saturated) at a concentration of 38 mg/ml, the same concentration of protein as in the study utilizing 92% iron-saturated transferrin in B above. None of the desferri-exochelins acquired appreciable amounts of iron (Table 6).

[4] = molecular target: T1, 40% iron-saturated human transferrin (Homo sapiens, UniProt P02787); assay: Capacity to remove iron from 40% iron-saturated human transferrin; format: biochemical; details: Fe3+:desferri-Exochelin 10:1, PBS pH 7.4
T1 sequence (P02787 20-698): as above

[5] = molecular target: holo-transferrin (92% iron-saturated human transferrin) (Homo sapiens, UniProt P02787); assay: Capacity to remove iron from holo-transferrin (92% iron-saturated human transferrin); format: biochemical; details: Fe3+:desferri-Exochelin 10:1
Sequence of holo-transferrin (92% iron-saturated human transferrin) (P02787 20-698): as above
Method: as §1
B. Holo-Transferrin (92% Iron-Saturated Human Transferrin). To assess the capacity of the 3 different desferri-Exochelins to remove iron from holo-transferrin (92% iron-saturated human transferring, each of them was incubated for 1, 3, and 24 h with 92% iron-saturated transferrin such that the ratio of Fe^3+: desferri-Exochelin equaled 10:1, as in the aforementioned study with 40% iron-saturated transferrin. The % iron-saturation of the Exochelins was assayed as above.

[6] = molecular target: T1, 40% iron-saturated human transferrin; assay: Capacity to remove iron from 40% iron-saturated human transferrin; format: biochemical; details: Fe3+:desferri-Exochelin 10:1, PBS pH 7.4; remark: listed apart in the source
Method: as §1

[7] = assuming comparable affinities for iron, 15.1 µg 772SM(R), Experiment I
[8] = assuming comparable affinities for iron, 15.8 µg 772SM(R), Experiment II
[9] = listed as Native Desferri-Exochelin 772SM(R)
[10] = listed as native desferri-exochelin 772SM(R)

Substance: Exochelin 758SM [Native 758SM, reference compound]
- % Iron-Saturation 0 h [1]: 100%
- % Iron-Saturation 0 hour ([1]; Table 2, 0 hour): 100%
- % Iron-Saturation 1 hour ([1]; Table 2, with native desferri-Exochelin 772SM(R)): 61.7%
- % Iron-Saturation 1 hour ([1]; Table 2, with synthetic desferri-Exochelin 772SM(R)): 55.9%
- % Iron-Saturation 1 hour ([1]; Table 2, with synthetic desferri-Exochelin 772SM(S)): 54.1%
- % Iron-Saturation 0 hour ([2]; 0 hour): 100%
- % Iron-Saturation 1 hour ([2]; 1 hour): 40.0%

- Iron-Saturation 0 h ([3]; 0 h): 2.8%
- Iron-Saturation 3 h ([3]; 3 h): 9.3%
- Iron-Saturation 24 h ([3]; 24 h): 6.8%
- Iron-Saturation 0 h [4]: 2.8%
- Iron-Saturation 0 h ([5]; 0 h): 2.8%
- Iron-Saturation 1 h ([5]; 1 h): 11.6%
- Iron-Saturation 3 h ([5]; 3 h): 19.0%
- Iron-Saturation 24 h [5, 9]: 54.1%
- Iron-Saturation 24 h [5, 10]: 54.1%
- Iron-Saturation 1 h ([6]; 1 h): 9.3%
- Iron-Saturation 3 h ([6]; 3 h): 13.8%
- Iron-Saturation 24 h [6, 9]: 34.0%
- Iron-Saturation 24 h [6, 10]: 34.0%
Substance: Exochelin 772SM(R) [Native 772SM(R), reference compound]
- % of Calculated Iron-Saturation at Equilibrium 0 h [1, 7]: 6.8%
- % of Calculated Iron-Saturation at Equilibrium 0 h [1, 8]: 5.0%
- % Iron-Saturation 0 h [1]: 2.8%
- % of Calculated Iron-Saturation at Equilibrium 1 h [1, 7]: 85.8%
- % of Calculated Iron-Saturation at Equilibrium 1 h [1, 8]: 81.6%
- % of Calculated Iron-Saturation at Equilibrium 1 h ([1]; assuming comparable affinities for iron, listed as native Exochelin 772SM(R)): 85.8% and 81.6%
- % Iron-Saturation 1 h ([1]; 15.1 µg 772SM(R), Experiment I): 46.4%
- % Iron-Saturation 1 h ([1]; 15.8 µg 772SM(R), Experiment II): 45.6%
- % Iron-Saturation 1 h ([1]; listed as native Exochelin 772SM(R)): 46.4% and 45.6%
- % of Calculated Iron-Saturation at Equilibrium 0 hour ([1]; Table 2, 0 hour, assuming comparable affinities for iron): 5.4%
- % Iron-Saturation 0 hour ([1]; Table 2, 0 hour): 2.8%
- % of Calculated Iron-Saturation at Equilibrium 1 hour ([1]; Table 2, assuming comparable affinities for iron): 88.7%
- % of Calculated Iron-Saturation at Equilibrium 1 hour ([1]; Table 2, assuming comparable affinities for iron, listed as native Exochelin 772SM(R)): 88.7%
- % Iron-Saturation 1 hour ([1]; Table 2): 46.2%
